Experimental data as given in PMC11845477, “Exploring the principles behind antibiotics with limited resistance” (Nature Communications, 2025).
Where two headings read alike, the source gives them in different places. Where a SMILES comes first, the peptide text is derived from it. Bridges are numbered along the chain shown (N, C = ends). [ ]: non-standard residue; d: D form. The star is where a group is joined. X1 = NC[C@@H](CC(=O)*)c1cccc(Cl)c1; X2 = CC[C@H](C)CCCCC(=O)*; Dab = NCC[C@H](N)C(=O)O; Dap = NC[C@H](N)C(=O)O

Assays:
[1] = test system: polymyxin B-resistant lines of E. coli (EC-SEN); assay: Cross-resistance of polymyxin B resistant evolved lines, relative MIC; format: cell-based, Escherichia coli
Method: 3 independently evolved lines from each investigated species were studied, including E. coli (EC), K. pneumoniae (KP), A. baumannii (AB), and P. aeruginosa (PA). […] The distances between antibiotics were computed using the Euclidean distance method based on the log-transformed MIC values. The clustering was performed using the complete linkage method. […] For detailed information on antibiotic and bacterial strain abbreviations, see Supplementary Data 1. Source data are provided as a Source Data file.
(§1) A robotic liquid handling system was used to automatically prepare a 11 to 16-step serial dilution in 384-well microtiter plates (Greiner). A final concentration of 5 × 10^5 bacterial cells per mL were inoculated into each well containing 60 µL MHB medium. Bacterial cultures were incubated at 37 °C with continuous shaking (Infors shaker, 900 rpm with 3 mm throw) for 18 hours (2 replicates from each). Cell growth was monitored by measuring the optical density (OD600 values, using Biotek Synergy microplate reader). MIC was defined as the antibiotic concentration of complete growth inhibition (i.e., OD600 < 0.05). Relative MIC was calculated as follows:1 relativeMIC=MICevolved/MICancestor […]
Each data point represents a distinct
Boxplots show the median, first and third quartiles, with whiskers showing the 5th and 95th percentiles. P values were calculated using Dunn's post-hoc test with Benjamini-Hochberg correction (NS indicates p > 0.05, ** / **** indicates p < 0.01 […]
(§2) For detailed information on antibiotic and bacterial strain abbreviations, see Supplementary Table 1. Source data are provided as a Source […]
(§3) (1 picture or pasted object on this page, not shown here)

[2] = test system: polymyxin B-resistant lines of K. pneumoniae (KP-SEN); assay: as above; format: cell-based, Klebsiella pneumoniae
Text: To further investigate potential overlaps in resistance mechanisms, we examined the extent of cross-resistance between polymyxin B and other antibiotics that target the bacterial membrane.
Fig. 7 Cross-resistance of polymyxin B resistant lines to ST and DT permeabilizer antibiotics. […] 3 independently evolved lines from each investigated species were studied, including E. coli (EC), K. pneumoniae (KP), A. baumannii (AB), and P. aeruginosa (PA). Gray color of the main heatmap indicates combinations not tested due to intrinsic resistance of ancestor strain. The additional heatmap to the right depicts genes mutated in each polymyxin B-adapted line and their involvement in specific cellular processes based on KEGG (Kyoto Encyclopedia of Genes and Genomes) and COG (Clusters of Orthologous Genes) databases. The distances between antibiotics were computed using the Euclidean distance method based on the log-transformed MIC values. The clustering was performed using the complete linkage method. […] For detailed information on antibiotic and bacterial strain abbreviations, see Supplementary Data 1. Source data are provided as a Source Data file.
as §1
Supplementary Figure 6. Susceptibility of Polymyxin B resistant lines to other ST and DT […]
dividing the MIC of the evolved line by that of the corresponding ancestor) of 12 polymyxin B resistant lines to ST and DT permeabilizer antibiotics used in this study. Each data point represents a distinct adaptive laboratory evolved polymyxin B resistant line. Boxplots show the median, first and third quartiles, with whiskers showing the 5th and 95th percentiles. P values were calculated using Dunn's post-hoc test with Benjamini-Hochberg correction (NS indicates p > 0.05, ** / **** indicates p < 0.01 / 0.0001, respectively). The resistance level of polymyxin B resistant lines to polymyxin B (PMB), […]
as §2, §3

[3] = test system: E. coli ATCC 25922 (SEN) and E. coli NCTC13846 (MDR); set-up: method as in PMID 39805953; details: cited from earlier work
[4] = test system: K. pneumoniae ATCC 10031 (SEN) and K. pneumoniae ATCC 700603 (MDR); set-up: method as in PMID 39805953; details: K. pneumoniae sensitive strain; cited from earlier work
[5] = test system: A. baumannii ATCC 17978 (SEN) and A. baumannii ATCC BAA-1605 (MDR); set-up: method as in PMID 39805953; details: cited from earlier work
[6] = test system: P. aeruginosa ATCC BAA-3107 (SEN) and P. aeruginosa LESB58 (MDR); details: cited from earlier work
Text: page 10: Mobile resistance genes against DT permeabilizer were rare in human-associated microbiomes and clinically relevant pathogens, while they were abundant against ST permeabilizers.

[7] = test system: mutated genes in antibiotic-adapted lines; assay: Whole genome sequencing and comparative mutational analysis of adapted lines; details: lines adapted in laboratory evolution
Text: We focused on the resistance mechanisms of DT permeabilizers and ST permeabilizers (Fig. 5a), as these antibiotics commonly disintegrate the bacterial membrane, and therefore the resistance mechanisms may overlap.
Genes are categorized based on their cellular localization using PSORT (Protein Subcellular Localization Prediction Tool). They are further classified according to their involvement in specific metabolic or resistance pathways using the KEGG (Kyoto Encyclopedia of Genes and Genomes) and COG (Clusters of Orthologous Genes) databases.
To identify potential antibiotic resistance mutations, we selected 2 to 5 lines from the frequency-of-resistance (FoR) and adaptive laboratory evolution (ALE) experiments for whole genome sequencing. Resistant populations were grown overnight in antibiotic-free medium, and DNA was isolated using the GenElute Bacterial Genomic DNA Kit (Sigma), following the manufacturer’s instructions. DNA was eluted in 120 µl of RNAse-free water over two elution steps, and 60 µl of the eluted DNA was further concentrated using the Zymo DNA Clean and Concentrator Kit. DNA concentration was measured with a Qubit Fluorometer and set to 1 ng/µl per sample. Sequencing libraries were prepared using the Nextera XT DNA library preparation kit (Illumina) and sequenced on an Illumina NextSeq 500 platform, generating 2 × 150 bp paired-end reads.
To identify and annotate variants, sequencing reads were mapped to their corresponding reference genomes using the Burrows-Wheeler Aligner (BWA)[75]. PCR duplicates were removed using Picard Mark Duplicates (see http://broadinstitute.github.io/picard) and reads with more than 6 mismatches were discarded. Variants (SNPs and INDELs) were called with Freebayes[76] and filtered using vcffilter[77], retaining only those with a quality score above 100. Rare variants were not excluded, but potential artefacts were manually inspected using IGV[78]. Variants were annotated with SnpEf, keeping only those absent in the ancestor. Mutations appearing in more than nine lines were excluded, as these were likely present in the ancestor. […]

[8] = test system: Escherichia coli, Klebsiella pneumoniae, Acinetobacter baumannii, and Pseudomonas aeruginosa; details: all species; cited from earlier work
[9] = test system: A. baumannii ATCC 17978 (SEN) and A. baumannii ATCC BAA-1605 (MDR); details: after 60 days of evolution; cited from earlier work
Text: (§4) Using the same set of bacterial strains, we initiated adaptive laboratory evolution with the aim to maximize the level of antibiotic resistance in the populations achieved during a longer, but fixed time period. As expected, resistance levels were generally much higher than those observed in FoR assay. […] For instance, after 60 days of evolution, resistance levels increased by a maximum of fourfold in A. baumannii and in the E. coli sensitive strain e ...

[10] = test system: E. coli ATCC 25922 (SEN) and E. coli NCTC13846 (MDR); details: E. coli sensitive strain, after 60 days of evolution; cited from earlier work
Text: as §4

[11] = EC-SEN, polymyxin B-resistant evolved line 4, MIC evolved/MIC ancestor
[12] = EC-SEN, polymyxin B-resistant evolved line 6, MIC evolved/MIC ancestor
[13] = EC-SEN, polymyxin B-resistant evolved line 10, MIC evolved/MIC ancestor
[14] = polymyxin B-resistant evolved line 4 of EC-SEN, MIC relative to ancestor
[15] = polymyxin B-resistant evolved line 6 of EC-SEN, MIC relative to ancestor
[16] = polymyxin B-resistant evolved line 10 of EC-SEN, MIC relative to ancestor
[17] = KP-SEN, polymyxin B-resistant evolved line 1, MIC evolved/MIC ancestor
[18] = KP-SEN, polymyxin B-resistant evolved line 3, MIC evolved/MIC ancestor
[19] = KP-SEN, polymyxin B-resistant evolved line 7, MIC evolved/MIC ancestor
[20] = polymyxin B-resistant evolved line 1 of KP-SEN, MIC relative to ancestor
[21] = polymyxin B-resistant evolved line 3 of KP-SEN, MIC relative to ancestor
[22] = polymyxin B-resistant evolved line 7 of KP-SEN, MIC relative to ancestor

Q: Which results are given for CC[C@H](C)CCCCC(=O)N[C@@H](CCN)C(=O)N[C@H](C(=O)N[C@@H](CCN)C(=O)N[C@H]1CCNC(=O)[C@H]([C@@H](C)O)NC(=O)[C@H](CCN)NC(=O)[C@H](CCN)NC(=O)[C@H](CC(C)C)NC(=O)[C@@H](Cc2ccccc2)NC(=O)[C@H](CCN)NC1=O)[C@@H](C)O [Polymyxin B] (X2-[Dab]T[Dab][Dab][Dab][dF]L[Dab][Dab]T; lactam 4-C (inferred); N-terminus assumed)?
A: Relative MIC [1, 11]: 64; Relative MIC [1, 12]: 32; Relative MIC [1, 13]: 32; Relative MIC [1, 14]: 64; Relative MIC [1, 15]: 32; Relative MIC [1, 16]: 32; Relative MIC [2, 17]: 32; Relative MIC [2, 18]: 64; Relative MIC [2, 19]: 64; Relative MIC [2, 20]: 32; Relative MIC [2, 21]: 64; Relative MIC [2, 22]: 64; resistance level (relative MIC) after FoR assay ([3]; multidrug-resistant E. coli strain): no resistant mutants emerged; resistance level (relative MIC) after FoR assay [4]: no resistant mutants emerged; resistance level (relative MIC) after FoR assay ([5]; A. baumannii multidrug-resistant (MDR) strain): more than 128 fold; resistance level (relative MIC) after FoR assay ([5]; A. baumannii sensitive strain): no resistant mutants emerged; increase in resistance level after adaptive laboratory evolution [6]: 32 fold

Q: Which “overlap in the set of mutated genes associated with ST permeabilizers” value (shortened to “overlap in the set”) [7] does the source give for CC(C)c1ccc(Cn2ccc3c4c(N)nc(NC5CC5)nc4ccc32)cc1 [SCH79797] here?
A: Its value is 0.6%.

Q: What about the “Relative MIC” value [1, 11] of the same compound?
A: Its value is 1.

Q: What about the “Relative MIC” value [1, 12] of the same compound?
A: The value was 1.

Q: What about the “Relative MIC” value [1, 13] of the same compound?
A: Its value is 1.

Q: What about the “Relative MIC” value [1, 14] of the same compound?
A: Its value is 1.

Q: What about the “Relative MIC” value [1, 15] of the same compound?
A: Its value is 1.

Q: And the “Relative MIC” value [1, 16]?
A: Its value is 1.

Q: What about the “Relative MIC” value [2, 17] of the same compound?
A: The value was 1.

Q: What about the “Relative MIC” value [2, 18] of the same compound?
A: Its value is 1.

Q: What about the “Relative MIC” value [2, 19] of the same compound?
A: The value was 1.

Q: What about the “Relative MIC” value [2, 20] of the same compound?
A: The value was 1.

Q: What about the “Relative MIC” value [2, 21] of the same compound?
A: Its value is 1.

Q: What about the “Relative MIC” value [2, 22] of the same compound?
A: The value was 1.

Q: And the “average increment in resistance level (relative MIC) after FoR assay” value [8]?
A: The value was “less than fourfold”.

Q: What about the “increase in resistance level after adaptive laboratory evolution” value [9] of the same compound?
A: Its value is “fourfold”.

Q: And the “increase in resistance level after adaptive laboratory evolution” value [10]?
A: Its value is “fourfold”.

Q: Which results are given for CC(C)C[C@@H]1NC(=O)[C@@H](Cc2ccccc2)NC(=O)[C@H](CCN)NC(=O)[C@@H](NC(=O)[C@H](CN)NC(=O)[C@@H](NC(=O)C[C@H](CN)c2cccc(Cl)c2)[C@@H](C)O)CCNC(=O)[C@H]([C@@H](C)O)NC(=O)[C@H](CCN)NC(=O)[C@H](CCN)NC1=O [SPR206] (X1-T[Dap][Dab][Dab][dF]L[Dab][Dab]T; lactam 3-C (inferred); N-terminus assumed)?
A: Relative MIC [1, 11]: 32; Relative MIC [1, 12]: 64; Relative MIC [1, 13]: 64; Relative MIC [1, 14]: 32; Relative MIC [1, 15]: 64; Relative MIC [1, 16]: 64; Relative MIC [2, 17]: 32; Relative MIC [2, 18]: 128; Relative MIC [2, 19]: 128; Relative MIC [2, 20]: 32; Relative MIC [2, 21]: 128; Relative MIC [2, 22]: 128; resistance level (relative MIC) after FoR assay ([3]; E. coli sensitive strain): more than 128 fold; resistance level (relative MIC) after FoR assay [4]: more than 128 fold; increase in resistance level after adaptive laboratory evolution [6]: 32 fold

Q: For POL7306, which “overlap in the set” value [7] is on record?
A: The value was 8.12%.

Q: What about the “Relative MIC” value [1, 11] of the same compound?
A: Its value is 1.

Q: And the “Relative MIC” value [1, 12]?
A: Its value is 2.

Q: What about the “Relative MIC” value [1, 13] of the same compound?
A: Its value is 2.

Q: What about the “Relative MIC” value [1, 14] of the same compound?
A: The value was 1.

Q: And the “Relative MIC” value [1, 15]?
A: Its value is 2.

Q: And the “Relative MIC” value [1, 16]?
A: The value was 2.

Q: What about the “Relative MIC” value [2, 17] of the same compound?
A: Its value is 1.

Q: What about the “Relative MIC” value [2, 18] of the same compound?
A: Its value is 32.

Q: And the “Relative MIC” value [2, 19]?
A: Its value is 32.

Q: What about the “Relative MIC” value [2, 20] of the same compound?
A: The value was 1.

Q: What about the “Relative MIC” value [2, 21] of the same compound?
A: The value was 32.

Q: What about the “Relative MIC” value [2, 22] of the same compound?
A: The value was 32.

Q: Which “overlap in the set” value [7] does the source give for Tridecaptin M152-P3 here?
A: The value was 2.5%.

Q: With colistin as the compound, how does the “Relative MIC” value [1, 12] read?
A: The value was 32.

Q: What about the “Relative MIC” value [1, 13] of the same compound?
A: The value was 32.

Q: And the “Relative MIC” value [1, 15]?
A: The value was 32.

Q: What about the “Relative MIC” value [1, 16] of the same compound?
A: Its value is 32.

Q: What about the “Relative MIC” value [2, 17] of the same compound?
A: Its value is 32.

Q: What about the “Relative MIC” value [2, 18] of the same compound?
A: The value was 64.

Q: And the “Relative MIC” value [2, 19]?
A: Its value is 32.

Q: And the “Relative MIC” value [2, 20]?
A: Its value is 32.

Q: What about the “Relative MIC” value [2, 21] of the same compound?
A: The value was 64.

Q: And the “Relative MIC” value [2, 22]?
A: Its value is 32.
